Measurements from article PMC5094990, “Novel 1, 3-N, O-Spiroheterocyclic compounds inhibit heparanase activity and enhance nedaplatin-induced cytotoxicity in cervical cancer cells” (Oncotarget, 2016).

Experiments:
[1] = test system: HeLa cells; assay: MTT assay, growth inhibition of HeLa cells; assay type: cell-based, human; settings: Homo sapiens, HeLa; for inhibition at 1 µM / inhibition at 5 µM / inhibition at 15 µM / inhibition at 30 µM / inhibition at 60 µM / inhibition at 120 µM / inhibition at 180 µM / inhibition at 240 µM: 48 hs, mean ± s, read-out: Growth inhibition rate in HeLa cells; for IC50: 48 hours, MTT, read-out: IC50, growth inhibition of HeLa cells
Protocol: Cells were cultured in improved medium supplemented with 10% FBS and kept at 37°C in a […] humidified atmosphere containing 5% CO2. Logarithmic phase cells were used for the experiment and were treated with different concentrations of different medications for different amounts of time. […] Inhibitors were made into 10 mM stock solutions with DMSO, filtered, and kept at room temperature away from light. These inhibitor stock solutions were diluted to the required concentration (1, 5, 15, 30, 60, 120, 180, or 240 μM) before every experiment. The final doses of nedaplatin were […]. In order to determine whether an HPA inhibitor sensitized cells to nedaplatin, 10 μM of inhibitor number 16 (No. 16) was added into each experimental well with nedaplatin.
200 μl of single-cell suspension at a density of 5 × 10^4 cells/ml was seeded into 96-well plates. When cells were adherent, the medium was replaced with 200 μl of medium containing different concentrations of inhibitor or nedaplatin, and the cells were further incubated for 24 hours to 96 hours respectively. 20 μl MTT solution ([…] in phosphate buffered saline (PBS)) was added to each well 4 hours before the treatment ended. The cells were then incubated for another 4 hours, after which the supernatants were removed. The cells were totally solubilized in 150 μl DMSO. OD values were measured at the wavelength of 492 nm with a reference wavelength of 630 nm. Inhibition rate (IR) in the cells was calculated as follows: IR = ((OD2-OD0)-(OD1-OD0))/(OD2-OD0) × 100%, where OD0 was the OD value of blank wells, OD2 was the value of normal control wells, and OD1 was the value of experimental wells. Each condition was replicated in six separate wells.

[2] = target: T1, human recombinant HPA (Homo sapiens, UniProt Q9Y251); assay: Detection of HPA activity inhibition (Heparan Degrading Enzyme Assay Kit); assay type: biochemical; settings: 31 mIU human recombinant HPA, 37°C, 45 minutes; read-out: IC50, inhibitory effect on heparanase activity
T1 sequence (Q9Y251 158-543 limits assumed): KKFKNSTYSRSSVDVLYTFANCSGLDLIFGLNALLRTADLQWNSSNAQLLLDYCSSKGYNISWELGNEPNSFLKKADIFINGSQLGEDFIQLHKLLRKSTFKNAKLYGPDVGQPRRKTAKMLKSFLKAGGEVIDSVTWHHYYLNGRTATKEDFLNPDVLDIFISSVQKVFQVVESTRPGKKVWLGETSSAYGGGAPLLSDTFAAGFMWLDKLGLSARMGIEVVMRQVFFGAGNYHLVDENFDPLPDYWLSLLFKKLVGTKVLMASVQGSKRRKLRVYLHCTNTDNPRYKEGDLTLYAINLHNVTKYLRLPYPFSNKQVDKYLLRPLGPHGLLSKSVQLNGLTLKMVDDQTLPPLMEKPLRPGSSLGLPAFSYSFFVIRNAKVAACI
T1 sequence (Q9Y251 36-109 limits assumed): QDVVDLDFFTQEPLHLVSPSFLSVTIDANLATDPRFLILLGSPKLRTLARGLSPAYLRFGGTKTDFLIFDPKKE
Protocol: The final reaction volume of each vial was 100 μl. […] Then, 100 μl of terminating liquid was added into each well. OD values were examined at a wavelength of 450 nm. Each concentration was tested in three separate wells. GraphPad Prism 5 (GraphPad Prism Software Inc., San Diego) was used to calculate the inhibitory IC50 values.

| SMILES | melting point [°C] | inhibition at 1 µM [1] [%] | inhibition at 5 µM [1] [%] | inhibition at 15 µM [1] [%] | inhibition at 30 µM [1] [%] | inhibition at 60 µM [1] [%] | inhibition at 120 µM [1] [%] | inhibition at 180 µM [1] [%] | inhibition at 240 µM [1] [%] | IC50 [1] [µM] | IC50 [2] [µM] |
| --- | --- | --- | --- | --- | --- | --- | --- | --- | --- | --- | --- |
| COc1ccc(C2CNC(c3c(F)cccc3F)OC23CCCCC3)cc1 (stereo not shown) | 131.7 to 132.6 |  |  |  |  |  |  |  |  |  |  |
| Clc1ccc(C2NCC(c3ccccc3)C3(CCCCC3)O2)cc1 (stereo not shown) [No. 11] | 127.7 to 128.5 | 1.22 ± 0.0789 | 2.65 ± 0.0739 | 5.26 ± 0.294 | 13.6 ± 1.22 | 41.8 ± 1.19 | 71.4 ± 1.15 | 97.18 ± 0.525 | 98.02 ± 0.465 | 70.2 |  |
| Fc1ccc(C2NCC(c3ccccc3)C3(CCCCC3)O2)cc1 (stereo not shown) [No. 12] |  | -5.15 ± 0.0626 | -1.54 ± 0.472 | 5.39 ± 0.33 | 8.76 ± 1.21 | 31.7 ± 1.21 | 55.5 ± 0.671 | 89.01 ± 0.491 | 90.89 ± 0.416 | 96.6 |  |
| Fc1cccc(F)c1C1NCC(c2ccccc2)C2(CCCCC2)O1 (stereo not shown) [No. 14] | 130.4 to 131.2 | 2.92 ± 0.155 | 4.05 ± 0.888 | 9.57 ± 0.761 | 17.9 ± 1.2 | 46.4 ± 1.22 | 78.58 ± 0.502 | 96.98 ± 0.86 | 98.96 ± 0.517 | 64.2 | 4.47 |
